Where only a bound is given, the exact number is not on record here.

Broadly, the melting point is the temperature, or range, at which the solid turns liquid.

The molecule `CCOC(=O)CCNCC(O)COc1cccc(C#N)c1` (stereo not drawn) registered a melting point of 95 °C.
The molecule `CCCCCCCCNC(=O)Nc1ccccc1C(=O)NCC1CCN(C(c2ccccc2)c2ccccc2)CC1` displayed a melting point of 155 to 157 °C.
Take `CN(C(=O)C1CCCCC1)c1cccc(-c2nc(=O)c3ccccc3s2)n1`: the melting point was in the range of 184 to 186 °C.
Consider `C=C1C(=C)C2OC1c1cc3c(OC)ccc(OC)c3cc12`, for which the melting point is 205 to 206 °C.
With `CN(CCc1ccccc1)c1ssc(=O)c1Cl`, the melting point was 75 °C.
`CC(=O)Nc1cc2c(c(C(=O)O)c1)NCCO2` yielded a melting point of 253 °C.
For `CON=C(c1cc(C)no1)c1ccccc1CON=C(C)c1ccc(Cl)c(Cl)c1` the value was 84 to 85 °C.
The figure for `CC(C)Cc1nn(C)c(=O)c2cn(Cc3cccc4ccccc34)cc12` is 110 to 112 °C; for `CSc1cc(C=O)cc(OCc2ccccc2)c1O` it is 117 to 119 °C; for `COC(=O)C(C)Oc1c(C#N)cnn1-c1ccc(C(F)(F)F)cc1Cl` (stereo not drawn) it is 82 to 85 °C.
As to `CCCCCCCCCc1ccc(C(CCCC=O)C(=O)OC)cc1` (stereo not drawn), the melting point fell in the range of 38 to 39 °C.
The molecule `CN1C(=O)[C@H](NC(=O)CCC2CCCCC2)N=C(c2ccccc2)c2ccccc21` had a melting point of 144 to 146 °C.
In turn, `Fc1ccc(C2CSCC(=S)N2)cc1` (stereo not drawn) returned a melting point of 107 to 108 °C.
For `N#Cc1ccccc1OC[C@H]1CO1` the value was 84 to 86 °C.
As for `CN1C2=C(C(=O)CC(C)(C)C2)C(c2ccc(Cl)c(Oc3ccccc3)c2)C2=C1CC(C)(C)CC2=O`, the melting point lay within 183 to 185 °C.
In turn, `COC(C)C(=O)Nc1ccc(C2=NNC(=O)CC2)cc1` (stereo not drawn) registered a melting point of 245 to 247 °C.
For `O=C(O)Cc1ccccc1OCc1cn(-c2ccc(C(F)(F)F)cn2)nc1C1CCCCC1` the value was 131 to 132 °C; for `N#CC1(C#N)C2C=CC(C2)C1(Cl)C(F)(F)F` (stereo not drawn), 173 °C; for `COC(=O)C(Cc1cccs1)NC(=O)[C@H](Cc1cccc2ccccc12)NC(=O)OCc1ccccc1` (mixture of isomers), 140 to 141 °C.
Molecule `CN1C[C@H](CCCl)Oc2ncccc2C1=O` came in with a melting point of 61 to 62 °C.
For `Nc1nc(OCc2ccccc2)c2ncn(CC(=O)O)c2n1` the value was 159 to 165 °C.
The figure for `Oc1cc(O)c(-c2nc(-c3ccccc3)nc(-c3ccccc3)n2)cc1Cl` is 255 to 265 °C.
On to `O=C(Nc1nc(C(F)(F)F)c(I)s1)c1cccs1`, for which the melting point was 184 to 185 °C.
`CC#CCOc1cc(/C=C/C(=O)Nc2ccccc2C(=O)O)ccc1OC` showed a melting point of 170 to 171 °C.
`c1ccc(-c2onc3ccc(Oc4ccc5noc(-c6ccccc6)c5c4)cc23)cc1` returned a melting point of 158 to 165 °C.
For `CS(=O)(=O)c1ccc(C2=C(c3cccc(F)c3)C(=O)OC23CC3)cc1` the value was 130 to 131 °C; for `O=[N+]([O-])c1ccc(NS(=O)(=O)c2ccccc2)cc1`, 137 °C.
With `CC(=O)OCC(=O)c1cc(O)c(O)c([N+](=O)[O-])c1`, the melting point lay within 166 to 168 °C.
For `O=C1c2ccccc2C(=O)c2c(NCC(O)CCl)ccc(NCC(O)CCl)c21` (stereo not drawn) the value was 167 to 169 °C; for `CN(C)S(=O)(=O)CCc1ccccc1S(N)(=O)=O`, 134 to 136 °C.
For `Cc1nc(O)c(F)c(Cl)n1` the value was 214 to 216 °C; for `CCSc1nccn1N1CCN(c2ccc(OC)cc2)CC1`, 112 °C.
Molecule `CCOC(=O)C=CC(=S)c1ccc(-c2ccccc2)cc1` registered a melting point of 74 to 75 °C.
For `O=C(N[C@@H](Cc1c[nH]c2ccccc12)C(=O)O)c1ccccc1` the value was 84 to 86 °C; for `CCCCc1nc2c(N)nc3cc(-c4ccccc4)ccc3c2n1CC(C)C`, greater than 250 °C; for `CC(=O)c1ccc(-c2cn3ccccc3n2)cc1`, 209 to 210 °C.
The figure for `CC(C)OC(=O)C1=C(c2cn(C)c3ccccc23)C(=O)NC1=O` is 199 to 202 °C.
In turn, `Cc1cc(C)cc(Nc2cccc3c2OC(CN)C3)c1` (stereo not drawn) registered a melting point greater than 250 °C.
The figure for `CCCCCC/C=C/[C@@H](O)[C@H](CO)N=[N+]=[N-]` is 29 to 30 °C; for `COC(=O)C1=C(C)Nc2c(c(=O)n(C)c(=O)n2C)C1c1cccc([N+](=O)[O-])c1` (stereo not drawn) it is greater than 230 °C.
For `CNC(=O)C1(C)NCCc2c1n(F)c1ccccc21` (stereo not drawn) the value was 238 °C; for `CCOC(=O)c1cc2cc3c(cc2oc1=O)OCO3`, 200 to 201 °C; for `CCC1N=C(C(N)=O)ON1S(=O)(=O)c1ccccc1Cl` (stereo not drawn), 142 °C.
`COc1cc(Nc2c(C#N)cnc3cc(-c4cccc(CCN5CCOCC5)c4)c(OC)cc23)c(Cl)cc1Cl` gave a melting point of 193 to 195 °C.
For `CC(=O)c1cccc(-c2cnn3c(-c4cccc(NC(=O)CC(C)C)c4)ccnc23)c1` the value was 190 to 192 °C; for `COCc1cc(C2=C(Cl)CCN(C(=O)c3ccccc3)C2)no1`, 60.5 to 62 °C.
In turn, `N=C(Nc1ccc(Cl)cc1)Nc1ncccc1OCc1ccccc1Cl` came in with a melting point of 162 to 163 °C.
Turning to `COc1ccc(S(=O)(=O)Nc2cccc3c2N(C)c2ccccc2O3)cc1`, the melting point lay in the range of 151 to 153 °C.
The molecule `CCOC(=O)CCCOc1ccc(C(=O)Nc2ccccc2Sc2ccccc2-c2nnn[nH]2)cc1` registered a melting point of 173 to 175 °C.
For `CCON(C(=O)Cc1c(C)cc(Cl)cc1C)C1(C#N)CCN(OC)CC1` the value was 100 to 103 °C.
Turning to `Cc1c(C)c2c(c(C)c1O)SC(c1ccccc1O)O2` (stereo not drawn), the melting point was in the range of 175 to 176 °C.
For `COc1ccc2c(C)nc(=O)[nH]c2c1` the value was 251 to 254 °C; for `CCn1nc(-c2nc(C#N)c(N)nc2-c2ccccc2)ccc1=O`, greater than 250 °C.
The figure for `CCCS(=O)c1ccc(N)c([N+](=O)[O-])c1` (stereo not drawn) is 109 to 112 °C; for `COc1ccc(C=CC(=O)c2ccc(O)c(CC(=O)O)c2)cc1` it is 247 °C; for `Nn1c(=O)c(=O)[nH]c2c(Br)cc(Br)cc21` it is 273 to 275 °C.
For `CC(C)(Oc1ccc(Cl)cc1)C(=O)NCCCn1ccnc1` the value was 83 to 84 °C; for `Cc1csc(N2CCN(CC(O)c3ccc(O)c(C(N)=O)c3)CC2)n1` (stereo not drawn), 182 °C; for `COc1ccc(CC(O)c2ccccn2)cc1` (stereo not drawn), 110 to 112 °C.
`O=C(c1ccc(Cl)cc1)c1c(Cl)nc2n(c1=O)CCS2` came in with a melting point of 174 °C.
The figure for `Cc1cc(N2CCN(c3ccccc3)CC2)c(C#N)c(Cl)n1` is 139 to 140 °C.
For `CCOC(=O)c1nn(-c2cccc(C(F)(F)F)c2)c2c1CCCC2`, the melting point fell in the range of 77 to 78 °C.
In the case of `COc1cc(/C=C/C(=O)CC(=O)CC(C)(C)C)ccc1O`, the melting point is 130 to 132 °C.
In the case of `Clc1ccc2c(c1)C(c1ccccc1Cl)OCc1nnc(Br)n1-2` (stereo not drawn), the melting point was in the range of 167 to 168 °C.
The molecule `CCn1c(COC(=O)NC(=O)C(C)(C)C)nc(C(C)C)c1Sc1cc(Cl)cc(Cl)c1` had a melting point of 157 to 159 °C.
For `CCOC1CC(n2cc(CC)c(=O)[nH]c2=O)OC1CNC(=O)Cc1c(Cl)cccc1Cl` (stereo not drawn), the melting point was 249 to 250 °C.
With `CCOC(=O)C(=O)Nc1cccc2ccccc12`, the melting point fell in the range of 105 to 107 °C.
With `CC(C)(C)CNc1cc(N2CCNCC2)nc(NCC(C)(C)C)n1`, the melting point was in the range of 138 to 140 °C.
For `CC1(C)CC(NC(=O)c2cc(N)cc(N)c2)CC(C)(C)N1` the value was 188 to 190 °C.
For `O=c1[nH]c(-c2ccccc2F)nc2c1CCCC2` the value was 170 °C; for `CSc1ccc(C(=O)O)cc1OC1CCCC1`, 158 to 160 °C.
For `NC(=O)COc1cccc(N)c1` the value was 107 to 111 °C; for `O=C1C=CC2(C=C1)N=C(N1CCN(Cc3ccccc3)CC1)C=C2c1ccccc1`, 190 °C.
Molecule `CCCNS(=O)(=O)c1cc2cc(P(=O)(O)O)c(=O)[nH]c2cc1Cl` displayed a melting point greater than 300 °C.
For `O=C(O)Cc1ccc2c(c1)C(=O)c1cc(Cl)ccc1CS2` the value was 187 to 189 °C.
The molecule `CCOC(=O)/C=C/c1c2c(nn1-c1ccc(F)cc1)C(Cc1ccccc1)CCC2` (stereo not drawn) yielded a melting point of 117 to 118 °C.
The figure for `O=C(CCCCC(=O)N1CCN(c2cnccn2)CC1)c1ccc(Cl)cc1` is 138 to 140 °C; for `COc1ccc(-c2cc(C)nc3ccccc23)cc1` it is 101 °C; for `Nc1cccc(-c2cccc3c2/C(=C/c2ccc[nH]2)C(=O)N3)c1` it is 92 to 94 °C.
For `CC1(c2ccc(COc3ncc(Br)s3)cc2)OCCO1` the value was 129 to 131 °C; for `COc1nc(Nc2ccc(C)cc2[N+](=O)[O-])nc(OC)n1`, 189 to 191 °C; for `O=C(O)CCC(CC=Cc1cccc(Cl)c1)(C(=O)C=Cc1ccc(Cl)cc1)c1ccccc1` (stereo not drawn), 65 to 105 °C.
For `COC(=O)c1ncc(N)nc1N` the value was 252 to 254 °C; for `N#CCCSCc1nccc(N)n1`, 106 to 109 °C; for `CNC1CC=C(c2c[nH]c3ccc([N+](=O)[O-])cc23)CC1` (stereo not drawn), 208 to 210 °C.
In turn, `CCn1cc(C(=O)O)c(=O)c2cc(F)c(N3CCC4CCC(C3)N4)cc21` (stereo not drawn) had a melting point of 147 to 150 °C.
For `C#CCCCN=C(NC#N)NCCSCc1[nH]cnc1C` the value was 99 to 103 °C; for `CCN1C[C@@H](O)[C@H](Sc2ccccc2Cl)C1` (relative stereo), 90.5 to 92.5 °C.
`CCNc1nc(Nc2ccccc2)ncc1C=CC(=O)OCC` had a melting point of 125 to 126 °C.
For `CC(CN(C)C)Oc1ccc(/C=C/C(=O)O)cc1` (stereo not drawn) the value was 235 °C.
The figure for `COc1ccc2c3cc(C(=O)N4CCCCC4)ccc3n(CC3CCCCC3)c2c1` is 91 to 92 °C; for `COc1cc(C(=O)Cn2c(-c3nonc3N)nc3ccccc32)ccc1O` it is 265 °C; for `CCCCn1nc(C)c(C=O)c1Cc1ccc(-c2ccccc2-c2nnn[nH]2)cc1` it is 64 to 70 °C.

These data come from a melting point compilation (Tetko et al.; mined from patent text by program, amines drawn as free bases though some values may be those of a salt).
